The target of the assay is progesterone receptor (Homo sapiens, UniProt P06401). Kind of assay: PR Human Progesterone NHR Binding (Agonist Radioligand) Assay, [3H]progesterone, T47D cytosol. The conditions noted are these: 0.5 nM [3H]progesterone, T47D cytosolic fractions, 1 hour at 4° C., legend words it as Kd. As to the method: Compounds were tested using the PR Human Progesterone NHR Binding (Agonist Radioligand) Assay, Cerep at Eurofins Discovery using a modified version of the protocol from Sarup et al. (Cancer Res 1988; 48:5071-5078). Briefly, cytosolic fractions of T47D cells were incubated with 0.5 nM [^3H]progesterone for 1 hour at 4° C. in the absence or presence of the test compound. Nonspecific binding was determined in the presence of 1 μM promegestone. Reactions were subjected to scintillation counting. Results are expressed as a percent inhibition of the control radioligand specific binding.
Chain of progesterone receptor (P06401 whole entry, looked up): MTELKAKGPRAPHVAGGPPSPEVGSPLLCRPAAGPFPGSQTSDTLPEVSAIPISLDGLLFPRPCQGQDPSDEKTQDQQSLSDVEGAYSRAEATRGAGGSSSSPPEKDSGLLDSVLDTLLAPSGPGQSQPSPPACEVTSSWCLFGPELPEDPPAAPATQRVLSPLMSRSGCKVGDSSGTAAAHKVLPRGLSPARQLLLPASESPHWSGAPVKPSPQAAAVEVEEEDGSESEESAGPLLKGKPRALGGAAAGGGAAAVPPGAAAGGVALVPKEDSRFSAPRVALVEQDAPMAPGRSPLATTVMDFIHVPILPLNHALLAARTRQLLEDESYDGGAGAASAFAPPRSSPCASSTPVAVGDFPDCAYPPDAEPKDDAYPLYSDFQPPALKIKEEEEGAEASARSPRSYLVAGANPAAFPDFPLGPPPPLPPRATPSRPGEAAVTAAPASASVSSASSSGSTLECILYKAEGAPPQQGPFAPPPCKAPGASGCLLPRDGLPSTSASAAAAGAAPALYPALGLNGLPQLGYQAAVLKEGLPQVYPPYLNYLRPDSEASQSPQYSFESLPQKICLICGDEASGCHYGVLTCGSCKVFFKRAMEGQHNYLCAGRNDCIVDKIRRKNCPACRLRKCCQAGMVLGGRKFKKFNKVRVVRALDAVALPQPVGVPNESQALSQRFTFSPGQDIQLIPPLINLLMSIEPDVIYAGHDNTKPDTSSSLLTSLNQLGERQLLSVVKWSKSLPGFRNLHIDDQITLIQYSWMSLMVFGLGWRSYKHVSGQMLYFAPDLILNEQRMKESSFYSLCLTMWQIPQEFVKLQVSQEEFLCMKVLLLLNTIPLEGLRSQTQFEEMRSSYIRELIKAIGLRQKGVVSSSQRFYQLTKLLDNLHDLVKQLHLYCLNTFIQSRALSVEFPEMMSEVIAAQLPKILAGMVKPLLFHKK

Molecules are shown by their SMILES.

For the compound `CCS(=O)(=O)Nc1ccc(Oc2cccc(OCCOC3CCN(c4ccc(C(=O)N[C@H]5CC[C@H](Oc6ccc(C#N)c(Cl)c6)CC5)nn4)CC3)c2)c(-c2cn(C)c(=O)c3[nH]ccc23)c1` [I-1, N-[4-(3-chloro-4-cyano-phenoxy)cyclohexyl]-6-[4-[2-[3-[4-(ethylsulfonylamino)-2-(6-methyl-7-oxo-1H-pyrrolo[2,3-c]pyridin-4-yl)phenoxy]phenoxy]ethoxy]-1-piperidyl]pyridazine-3-carboxamide], the Ki – broadly, a measure of affinity in units of concentration, obtained from inhibition or displacement – fell in the range of 500 to 2500 nM.

The values are drawn from patent publication US20250388575A1, “HETEROBIFUNCTIONAL COMPOUNDS AND METHODS OF TREATING DISEASE” (Halda Therapeutics OpCo, Inc., priority 2022, published 2025).
